The values that follow come from patent US20140323573A1, “METABOLIZABLE SALTS AND USE THEREOF IN DIAGNOSTICS AND THERAPY” (priority 2011, published 2014).

The structures appear in SMILES notation. Counter-ions that a name gives are not always drawn. Like-named read-outs stand apart in the source and are kept apart here.

A short description of data set [1]: Osmotic coefficient and osmolality of solutions. The format is physicochemical. The source says:
a) Osmotic Coefficients of Compounds According to the Invention and not According to the Invention

For data set [2] the following is noted: cited from earlier work; for pK-values (first value) / pK-values (second value) / pK-values (third value): Table I, 37° C.
The nature of data set [3]: Buffer properties / acid-base data of 0.1 molar salt solutions (37° C.). As to conditions: 0.1 molar solution; for NaOH ΔpH 7.2-7.6: NaOH necessary for ΔpH of 7.2-7.6; for Titr. on 7.4: NaOH necessary to set pH 7.4; for β (at 7.4) buffer capacity: calculated from NaOH for ΔpH 7.2-7.6.
Excerpt: NaOH mmol/l for ΔpH of 7.2-7.6: how much NaOH in mmol/l is necessary for that ΔpH.
2. β (mmol/l/pH): the buffer capacity calculated therefrom at pH 7.40.
Titr on 7.4 (mmol/l): how much NaOH is necessary to set a pH-value of 7.4.
If a physiological pH-value of 7.4 is to be set in a 0.1 molar solution then the corresponding additives are specified in the column Titration pH=7.4. It is therefore specified how much NaOH (mmol/l) is to be added to set that pH-value.
The conditions of data set [4]: 0.1 molar solution, (literature); cited from earlier work.
Data set [5] is described as follows: Feed of bicarbonate: arginine / arginine acetate solution equilibrated with CO2. It counts as physicochemical. Particulars: ionic strength 160 mmol/l and 37° C. On the procedure:
If a solution with 48 mmol/l arginine is mixed with 24 mmol/l acetic acid that gives a mixture respectively comprising 24 mmol/l arginine and arginine acetate with a pH-value of about 8.6. That pH-value corresponds to the effective pK value of arginine (ionic strength 160 mmol/l and 37° C.). If that solution is necessarily equilibrated after infusion in the patient to a pCO2 of about 40 mmHg a maximum of 24 mmol/l arginine HCO3 will occur. Thus the physiological values of about 24 mmol/l HCO3 and a pH-value of about 7.4 will occur (for comparison arginine equilibration with pure CO2 in Table 1).

`Cl.N=C(N)NCCC[C@H](N)C(=O)O` [Arg HCl, arginine hydrochloride] had an Osmot. valence in data set [1] of 2. Further, the Osmot. coefficient in data set [1] (0.1 molar solution) was 0.895.

On to `O=C(O)CC(O)(CC(=O)O)C(=O)O` [citric acid], for which the Osmot. valence in data set [1] stood at 3. In data set [1] (0.1 molar solution), this compound displayed an Osmot. coefficient of 0.555. Moreover, in data set [2], the “pK-values (first value)” value was 3.0, the “pK-values (second value)” value was 4.4 and the “pK-values (third value)” value is 5.8.

On to `O=C(O)CC(O)(CC(=O)O)C(=O)O` [Lys3 citrate, tri-lysine citrate], for which the Osmot. coefficient in data set [1] (0.1 molar solution) is 0.715. In data set [3], the pH worked out at 6.88, the “NaOH ΔpH 7.2-7.6” value amounted to 5.9 mmol/L, the “Titr. on 7.4” value was determined as 5.8 mmol/L and the “β (at 7.4) buffer capacity” value was 14.8 mmol/l/pH.

`CC(=O)O.NCCCC[C@H](N)C(=O)O` [Lysine Acetate, lysine acetate]: in data set [3], the pH was 5.99, the “NaOH ΔpH 7.2-7.6” value was found to be 2.5 mmol/L, the “Titr. on 7.4” value stood at 6.8 mmol/L and the “β (at 7.4) buffer capacity” value is on record as 6.3 mmol/l/pH.

Regarding `O=C(O)CC(O)C(=O)O` (stereo not shown) [malic acid], in data set [2], the “pK-values (first value)” value is on record as 3.5 and the “pK-values (second value)” value is on record as 4.7.

`O=C(O)CC(O)(CC(=O)O)C(=O)O` [K3 citrate] had an Osmot. valence in data set [1] of 4. For the same compound, the Osmot. coefficient in data set [1] (0.1 molar solution) was found to be 0.681.

With `NC(CO)(CO)CO` [Tris], in data set [2], the pK was 8.2.

On to `O=S(=O)(O)CCN1CCN(CCO)CC1` [Hepes], for which the pK in data set [2] is given as 7.35.

In data set [1], `O=C(O)CC(O)(CC(=O)O)C(=O)O` [Na3 citrate] yielded an Osmot. valence of 4. The compound also showed an Osmot. coefficient in data set [1] (0.1 molar solution) of 0.681.

Take `O=C(O)O` [HCO3^−]: in data set [2], the pK is on record as 6.1.

As to `O=C([O-])O.[Na+]` [NaHCO3], the Osmot. valence in data set [1] was 2. This compound had an Osmot. coefficient in data set [1] (0.1 molar solution, (assumed)) of 0.926.

As for `CC(=O)O` [acetic acid], the “pK-values (first value)” value in data set [2] is 4.6.

`N=C(N)NCCC[C@H](N)C(=O)O.O=C(O)O` [Arg HCO3] had an Osmot. valence in data set [1] of 2. In addition, the Osmot. coefficient in data set [1] (0.1 molar solution) came out at 0.833; in data set [1] (0.2 m, 100% CO2 at 37° C.), 0.2 m 0.833 100% CO2 at 37 °C; in data set [1] (0.3 m, 100% CO2 at 37° C.) it was 0.3 m 0.763 100% CO2 at 37 °C.

Regarding `[Cl-].[Na+]` [NaCl], the Osmot. valence in data set [1] amounted to 2. The Osmot. coefficient in data set [4] is given as 0.926.

`N=C(N)NCCC[C@H](N)C(=O)O` [Arginine, arginine] showed an Osmot. valence in data set [1] of 1. In data set [1] (0.1 molar solution), the Osmot. coefficient is listed as 0.980 and the osmolality is given as 98 mosmol/kg H2O. Also, the “effective pK value” in data set [5] is on record as “about 8.6”. In addition, in data set [2], the “pK-values (first value)” value is listed as 2.0, the “pK-values (second value)” value is 9.0 and the “pK-values (third value)” value is 12.1. In addition, in data set [3], the pH was 10.26.

As to `O=C(O)O` [carbonic acid], the “pK-values (first value)” value in data set [2] was 6.1.

Turning to `N` [NH4^+], the pK in data set [2] was 9.0.

`NCCCC[C@H](N)C(=O)O` [Lysine, lysine]: in data set [1], the Osmot. valence is on record as 1. The compound also yielded an Osmot. coefficient in data set [1] (0.1 molar solution) of 1.000. Also, in data set [2], the “pK-values (first value)” value is on record as 2.2, the “pK-values (second value)” value is 8.9 and the “pK-values (third value)” value is 10.3. The pH in data set [3] was found to be 9.55.

As for `CC(=O)O.N=C(N)NCCC[C@H](N)C(=O)O` [Arg acetate, arginine acetate], the pK in data set [2] is on record as 4.6. Moreover, in data set [3], the pH came to 5.99, the “NaOH ΔpH 7.2-7.6” value stood at 2.8 mmol/L, the “Titr. on 7.4” value turned out to be 7.3 mmol/L and the “β (at 7.4) buffer capacity” value is given as 7.0 mmol/l/pH.
